Twelve compounds from patent publication US8541404B2, “Inhibitors of the human aldosterone synthase CYP11B2” (ElexoPharm GmbH, priority 2009, dated 2013) can be followed below.

A value given as a limit tells only on which side of the number the result lay.

The target of data set [1] is T1, human aldosterone synthase (CYP11B2) (Homo sapiens, UniProt P19099).
T1 construct: expressed in transfected cells; host or cells: V79 MZh11B2 (V79 Chinese hamster cells)
T1 sequence (P19099 25-503): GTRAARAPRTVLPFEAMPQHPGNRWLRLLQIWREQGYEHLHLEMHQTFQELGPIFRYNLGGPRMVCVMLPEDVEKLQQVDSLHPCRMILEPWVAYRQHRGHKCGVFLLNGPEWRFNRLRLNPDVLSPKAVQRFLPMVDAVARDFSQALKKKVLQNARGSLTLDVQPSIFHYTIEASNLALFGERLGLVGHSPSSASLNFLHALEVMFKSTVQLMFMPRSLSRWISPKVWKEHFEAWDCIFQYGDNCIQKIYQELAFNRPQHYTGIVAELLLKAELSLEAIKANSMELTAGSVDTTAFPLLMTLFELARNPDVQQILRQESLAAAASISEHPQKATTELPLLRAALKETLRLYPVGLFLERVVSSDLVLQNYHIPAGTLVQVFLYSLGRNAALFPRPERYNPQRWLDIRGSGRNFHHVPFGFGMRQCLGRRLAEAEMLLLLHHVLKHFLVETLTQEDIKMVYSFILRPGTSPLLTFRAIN
Put plainly: Test for CYP11B2 inhibitors in V79 MZh11B2 cells (test system B). It counts as cell-based. Conditions: for IC50: Table 1, V79 MZh11B2 cells, read-out: IC50 V79 11B2 hCYP11B2; for inhibition at 0.5 µM: V79MZh11B2, Table 2, percentage inhibition, inhibitor concentration 0.5 μM, read-out: % (0.5 μM) hCYP11B2. As to the method:
B) Test for CYP11B2 Inhibitors (V79 MZh Cells):
(§1) Maintenance of the cells: V79 MZh11B2 and V79 MZh11B1, which recombinantly express human aldosterone synthase (CYP11B2) or steroid 11-β-hydroxylase CYP11B1) and were prepared according to Denner et al. (Denner, K. et al., Pharmacogenetics 5:89-96 (1995)), were cultured in cell culture dishes of 60 or 90 mm diameter in a CO2 incubator at 37° C. and in a water-saturated atmosphere containing 5% of CO2. Both cell lines were cultured in DMEM^+, which contained 10% of FCS and the antibiotics penicillin and streptomycin (1%) for protection from bacterial contamination. The cells were passaged every 2 to 3 days following treatment with trypsin/EDTA, since the doubling […], according to cell count, was 1 to 2 days. The cells were passaged up to 12 to 15 times in order to exclude possible cell changes. If needed, freshly thawed cells were employed.
(§2) Inhibition test: V79 MZh11B2- and V79 MZh11B1 cells (8·10^5 cells per well) were grown to confluence in 24-well cell culture plates with a 1.9 cm^2 culture area per hole (Nunc, Roskilde, Denmark). Before the test, the DMEM culture medium present was removed, and 450 μl of fresh DMEM with inhibitor were added to each hole in at least three different concentrations in order to determine the IC50 value. After preincubation (60 min, 37° C.), the reaction was started by the addition of 50 μl of DMEM containing 2.5 μl of a solution of the substrate 11-deoxycorticosterone (20 μM, containing 1.25 nCi of [4-^14C]11-deoxycorticosterone, in ethanol). The plate was then kept in the CO2 incubator at 37° C. and under 5% CO2. The V79 MZh11B1 cells were incubated for 120 min, the V79 MZh11B2 cells for 40 min. Controls not containing inhibitor were treated in the same manner. The enzyme reactions were stopped by extraction of the supernatant with 500 μl of EtOAc. The samples were centrifuged (10000×g, 2 min), and the solution was removed and evaporated. The residue was taken up in 10 μl of chloroform and analyzed by HPTLC (see below).
For V79 MZh11B2, the conversion followed according to equation 3: […]
(§3) The percentage inhibition which was caused by an inhibitor in the concentration employed in each case was calculated according to equation 2.
(§4) It was calculated by determining the percentage inhibition at least 3 different inhibitor concentrations, which must all lie in the linear range of the sigmoidal IC50 curve (log C/% inhibition). The calculation was carried out by linear regression. The values determined were only used if they formed a straight line at a probability r of >0.95.
(§5) The resuspended residue from example A) or B)—containing the radiolabeled steroids—was applied to an HPTLC plate (20×10 cm, silica gel 60F254) with a concentration zone (Merck, Darmstadt, Germany). The plate was developed twice using the mobile phase chloroform/methanol/water (300:20:1). Unlabeled […] and corticosterone were applied as a reference for the CYP11B1 reaction. For the CYP11B2 reaction, 11-deoxycorticosterone, corticosterone, 18-hydroxycorticosterone and aldosterone were used as a reference. The unlabeled references were detected at 260 nm. Subsequently, imaging plates (BAS MS2340, for ^14C samples, Raytest, Straubenhardt, Germany) were exposed for 48 h with the HPTLC plates. The imaging plates were scanned using the Phosphoimager system Fuji FLA 3000 (Raytest, Straubenhardt, Germany) and the steroids were quantified.

The target of data set [2] is T2, steroid 11-β-hydroxylase CYP11B1 (hCYP11B1) (Homo sapiens, UniProt P15538).
T2 construct: expressed in transfected cells; host or cells: V79 MZh11B1 (V79 Chinese hamster cells)
T2 sequence (P15538 25-503): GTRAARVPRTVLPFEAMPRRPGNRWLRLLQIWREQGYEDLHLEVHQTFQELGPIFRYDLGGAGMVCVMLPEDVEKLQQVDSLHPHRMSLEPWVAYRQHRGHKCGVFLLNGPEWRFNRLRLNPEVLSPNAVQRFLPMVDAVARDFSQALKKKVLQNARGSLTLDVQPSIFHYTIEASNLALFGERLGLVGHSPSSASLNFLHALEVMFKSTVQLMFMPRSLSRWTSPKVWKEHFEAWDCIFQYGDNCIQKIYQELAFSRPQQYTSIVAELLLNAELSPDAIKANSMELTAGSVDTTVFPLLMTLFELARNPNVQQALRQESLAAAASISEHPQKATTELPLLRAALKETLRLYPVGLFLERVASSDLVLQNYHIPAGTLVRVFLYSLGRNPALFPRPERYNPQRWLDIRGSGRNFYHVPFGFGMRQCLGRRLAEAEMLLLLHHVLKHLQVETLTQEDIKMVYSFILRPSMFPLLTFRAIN
The data set can be described thus: Inhibition test in V79 MZh11B1 cells (test system B). To be noted: for IC50: Table 1, V79 MZh11B1 cells, read-out: IC50 V79 11B1 hCYP11B1; for % (0.5 μM) hCYP11B1: Table 2, percentage inhibition, inhibitor concentration 0.5 μM. It counts as cell-based. As to the method: as §1, §2
In the case of V79 MZh11B1, conversion was calculated analogously to equation 1, wherein: […]
as §3, §4, §5

For `O=C1CCc2cc(-c3cccnc3)ccc2N1` [Example 1, 6-Pyridin-3-yl-3,4-dihydro-1H-quinolin-2-one], the melting point (in general, the temperature of the solid-liquid transition) is 189 °C. Further, the IC50 – broadly, the midpoint of a concentration-inhibition curve – in data set [1] amounted to 28 nM. Further, in data set [2], the IC50 was 6750 nM.
`COc1cncc(-c2ccc3c(c2)CCC(=O)N3C)c1` [Example 6, 6-(5-Methoxypyridin-3-yl)-1-methyl-3,4-dihydro-1H-quinolin-2-one] registered a melting point of 159 °C. Also, the IC50 in data set [1] came to 0.2 nM. Moreover, in data set [2], the IC50 worked out at 87 nM.
`CN1C(=O)CCc2cc(-c3cncc4ccccc34)ccc21` [Example 7, 6-Isoquinolin-4-yl-1-methyl-3,4-dihydro-1H-quinolin-2-one] registered a melting point of 176 °C. Moreover, the “% (0.5 μM) hCYP11B1” value in data set [2] is on record as 97%.
For `S=C1CCc2cc(-c3cccnc3)ccc2N1` [Example 8, 6-Pyridin-3-yl-3,4-dihydro-1H-quinoline-2-thione], in that order: 267 °C and 49%.
`CCN1C(=O)CCc2cc(-c3cccnc3)ccc21` [Example 9, 1-Ethyl-6-pyridin-3-yl-3,4-dihydro-1H-quinolin-2-one] yielded a melting point of 91 °C. Besides, the IC50 in data set [1] was 21 nM. In addition, the IC50 in data set [2] came to 5970 nM.
The matching figures for `O=C1CCc2cc(-c3cccnc3)cc(Cl)c2N1` [Example 12, 8-Chloro-6-pyridin-3-yl-3,4-dihydro-1H-quinolin-2-one]: 178 °C, 3.8 nM and 1670 nM.
Compound `O=C1CSc2cc(-c3cccnc3)ccc2N1` [Example 14, 7-Pyridin-3-yl-4H-benzo[1,4]thiazin-3-one] registered a melting point of 240 °C. In addition, in data set [2], the “% (0.5 μM) hCYP11B1” value worked out at 49%.
The compound `COc1cncc(-c2cc3c4c(c2)CCC(=O)N4CCC3)c1` [Example 19, 9-(5-Methoxypyridin-3-yl)-1,2,6,7-tetrahydro-5H-pyrido[3,2,1-ij]quinolin-3-one] yielded a melting point of 150 °C. In addition, the inhibition at 0.5 µM in data set [1] is 95%. Further, the “% (0.5 μM) hCYP11B1” value in data set [2] was 51%.
Consider `O=C1CCc2cc(-n3ccnc3)cc3c2N1CC3` [Example 28, 8-Imidazol-1-yl-1,2,5,6-tetrahydro-pyrrolo[3,2,1-ij]quinolin-4-one], for which the melting point came out at 124 °C. Further, in data set [1], the inhibition at 0.5 µM came to 87%. Further, the “% (0.5 μM) hCYP11B1” value in data set [2] was determined as 24%.
The compound `O=C1CNc2cc(-c3cncc4ccccc34)ccc2N1` [Example 56, 6-(Isoquinolin-4-yl)-3,4-dihydroquinoxalin-2(1H)-one] returned a melting point of more than 300 °C.
Same read-out and setting: under `CN1CC(=O)Nc2ccc(-c3cccnc3)cc21` [Example 57, 4-Methyl-6-(pyridin-3-yl)-3,4-dihydroquinoxalin-2(1H)-one] stands more than 300 °C; under `CCC(c1cc2c3c(c1)CCN3C(=O)CC2)n1ccnc1` (stereo not drawn) [Example 60, 8-(1-(1H-imidazol-1-yl)propyl)-1,2,5,6-tetrahydropyrrolo[3,2,1-ij]quinolin-4-one], 195 °C.
